Experimental data as given in patent EP4745137A1 (Gluetacs Therapeutics (Shanghai) Co., Ltd., priority 2023, dated 2025).

Legend:
Format in all cases: cell-based
Details in all cases: 24 hours of compound treatment, 50 nM and 500 nM tested (concentration behind the class not stated)
[1] = target: T1, WEE1 (Homo sapiens, UniProt P30291+Q96SW2); assay: Western-blot assay of substrate protein degradation in hPBMCs, WEE1
T1 construct: endogenous in cells; host or cells: hPBMCs (Milecell Biotechnologies)

[2] = target: T2, IKZF1 (Homo sapiens, UniProt Q13422+Q96SW2); assay: Western-blot assay of substrate protein degradation in hPBMCs, IKZF1
T2 construct: endogenous in cells; host or cells: hPBMCs (Milecell Biotechnologies)

[3] = target: T3, IKZF2 (Homo sapiens, UniProt Q96SW2+Q9UKS7); assay: Western-blot assay of substrate protein degradation in hPBMCs, IKZF2
T3 construct: endogenous in cells; host or cells: hPBMCs (Milecell Biotechnologies)

[4] = target: T4, IKZF3 (Homo sapiens, UniProt Q96SW2+Q9UKT9); assay: Western-blot assay of substrate protein degradation in hPBMCs, IKZF3
T4 construct: endogenous in cells; host or cells: hPBMCs (Milecell Biotechnologies)

[5] = target: T5, CK1α (Homo sapiens, UniProt P48729+Q96SW2); assay: Western-blot assay of substrate protein degradation in hPBMCs, CK1α
T5 construct: endogenous in cells; host or cells: hPBMCs (Milecell Biotechnologies)

[6] = target: T6, GSPT1 (Homo sapiens, UniProt P15170+Q96SW2); assay: Western-blot assay of substrate protein degradation in hPBMCs, GSPT1
T6 construct: endogenous in cells; host or cells: hPBMCs (Milecell Biotechnologies)

T2 sequence (Q13422 whole entry): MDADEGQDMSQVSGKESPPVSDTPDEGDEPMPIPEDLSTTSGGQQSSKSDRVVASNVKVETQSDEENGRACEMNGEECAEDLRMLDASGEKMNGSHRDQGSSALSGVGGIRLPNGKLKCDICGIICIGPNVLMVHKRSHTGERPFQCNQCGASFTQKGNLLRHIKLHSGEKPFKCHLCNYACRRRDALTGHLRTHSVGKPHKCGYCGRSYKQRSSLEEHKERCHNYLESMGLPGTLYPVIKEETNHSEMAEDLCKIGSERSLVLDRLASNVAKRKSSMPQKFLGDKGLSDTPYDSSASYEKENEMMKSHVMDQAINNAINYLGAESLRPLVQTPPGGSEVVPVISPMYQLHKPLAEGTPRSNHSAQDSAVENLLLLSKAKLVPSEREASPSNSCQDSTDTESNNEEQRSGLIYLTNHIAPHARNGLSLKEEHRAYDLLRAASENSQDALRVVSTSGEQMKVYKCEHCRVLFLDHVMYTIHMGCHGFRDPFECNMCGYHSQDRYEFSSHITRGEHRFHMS
T2 sequence (Q96SW2 whole entry): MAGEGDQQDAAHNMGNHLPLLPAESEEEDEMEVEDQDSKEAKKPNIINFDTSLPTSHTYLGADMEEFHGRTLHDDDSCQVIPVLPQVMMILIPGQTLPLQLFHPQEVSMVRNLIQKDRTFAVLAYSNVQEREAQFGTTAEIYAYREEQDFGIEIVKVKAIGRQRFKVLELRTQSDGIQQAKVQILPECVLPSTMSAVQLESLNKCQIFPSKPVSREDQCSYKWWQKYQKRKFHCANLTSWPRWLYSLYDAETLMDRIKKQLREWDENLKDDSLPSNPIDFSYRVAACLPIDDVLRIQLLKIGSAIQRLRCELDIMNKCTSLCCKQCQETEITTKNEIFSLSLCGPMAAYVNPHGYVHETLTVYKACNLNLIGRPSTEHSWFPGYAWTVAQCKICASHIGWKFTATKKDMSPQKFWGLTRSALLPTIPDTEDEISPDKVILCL
T2 sequence (Q16531 whole entry partner): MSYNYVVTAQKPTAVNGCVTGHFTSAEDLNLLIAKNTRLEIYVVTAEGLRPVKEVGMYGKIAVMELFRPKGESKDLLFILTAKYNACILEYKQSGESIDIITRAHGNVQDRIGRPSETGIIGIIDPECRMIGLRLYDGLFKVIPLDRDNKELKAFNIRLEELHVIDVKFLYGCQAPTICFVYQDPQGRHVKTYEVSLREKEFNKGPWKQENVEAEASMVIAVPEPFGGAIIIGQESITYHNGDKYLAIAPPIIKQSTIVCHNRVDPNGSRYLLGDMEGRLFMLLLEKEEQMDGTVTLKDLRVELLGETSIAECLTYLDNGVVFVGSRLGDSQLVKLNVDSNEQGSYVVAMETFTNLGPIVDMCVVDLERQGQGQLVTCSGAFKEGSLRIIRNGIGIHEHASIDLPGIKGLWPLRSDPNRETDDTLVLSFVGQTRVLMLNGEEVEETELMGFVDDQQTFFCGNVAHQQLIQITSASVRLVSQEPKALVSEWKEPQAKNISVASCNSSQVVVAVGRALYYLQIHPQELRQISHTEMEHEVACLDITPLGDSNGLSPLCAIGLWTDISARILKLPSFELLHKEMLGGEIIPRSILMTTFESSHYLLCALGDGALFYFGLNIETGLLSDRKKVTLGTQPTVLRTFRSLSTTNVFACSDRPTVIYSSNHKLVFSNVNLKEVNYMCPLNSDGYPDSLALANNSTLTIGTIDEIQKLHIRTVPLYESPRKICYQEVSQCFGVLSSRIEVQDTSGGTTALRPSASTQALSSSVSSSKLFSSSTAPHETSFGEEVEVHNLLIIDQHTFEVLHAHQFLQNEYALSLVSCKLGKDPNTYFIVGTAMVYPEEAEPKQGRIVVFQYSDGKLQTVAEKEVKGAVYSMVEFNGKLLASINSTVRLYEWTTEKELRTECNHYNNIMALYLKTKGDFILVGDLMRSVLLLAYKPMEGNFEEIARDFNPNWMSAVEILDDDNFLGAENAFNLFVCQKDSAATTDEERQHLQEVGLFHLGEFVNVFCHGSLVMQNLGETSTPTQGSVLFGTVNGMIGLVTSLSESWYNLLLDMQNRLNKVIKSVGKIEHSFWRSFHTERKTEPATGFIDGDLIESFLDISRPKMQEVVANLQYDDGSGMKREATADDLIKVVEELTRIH
T3 sequence (Q9UKS7 whole entry): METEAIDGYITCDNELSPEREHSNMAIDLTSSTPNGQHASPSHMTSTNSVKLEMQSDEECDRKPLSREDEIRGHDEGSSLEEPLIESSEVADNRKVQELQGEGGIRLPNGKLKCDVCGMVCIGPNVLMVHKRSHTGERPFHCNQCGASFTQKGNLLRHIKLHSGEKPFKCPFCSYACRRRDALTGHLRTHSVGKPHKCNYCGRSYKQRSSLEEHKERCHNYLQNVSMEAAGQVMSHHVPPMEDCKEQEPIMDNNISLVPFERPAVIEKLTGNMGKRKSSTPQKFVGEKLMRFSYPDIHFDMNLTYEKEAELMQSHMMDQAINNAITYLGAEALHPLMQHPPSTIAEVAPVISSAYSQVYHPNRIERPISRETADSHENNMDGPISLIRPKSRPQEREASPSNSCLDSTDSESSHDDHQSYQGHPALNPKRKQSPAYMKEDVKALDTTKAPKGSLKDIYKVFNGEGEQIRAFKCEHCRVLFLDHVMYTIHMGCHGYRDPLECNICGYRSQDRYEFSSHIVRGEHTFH
T3 sequence (Q96SW2 whole entry): as the sequence (Q96SW2 whole entry) above
T3 sequence (Q16531 whole entry partner): as the sequence (Q16531 whole entry partner) above
T4 sequence (Q9UKT9 whole entry): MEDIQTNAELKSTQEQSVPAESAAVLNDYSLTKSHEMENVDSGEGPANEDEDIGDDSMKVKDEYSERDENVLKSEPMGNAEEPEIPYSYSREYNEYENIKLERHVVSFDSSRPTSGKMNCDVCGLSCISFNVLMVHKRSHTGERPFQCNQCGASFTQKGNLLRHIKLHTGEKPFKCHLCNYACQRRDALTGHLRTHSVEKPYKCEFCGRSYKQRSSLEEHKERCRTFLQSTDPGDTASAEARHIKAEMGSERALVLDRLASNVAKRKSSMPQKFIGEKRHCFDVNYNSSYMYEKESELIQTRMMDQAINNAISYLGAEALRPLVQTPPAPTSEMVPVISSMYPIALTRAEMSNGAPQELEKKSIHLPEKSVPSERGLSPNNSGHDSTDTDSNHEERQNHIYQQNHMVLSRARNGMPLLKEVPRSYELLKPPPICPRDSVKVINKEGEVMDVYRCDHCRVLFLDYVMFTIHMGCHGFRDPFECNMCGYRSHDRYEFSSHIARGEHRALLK
T4 sequence (Q96SW2 whole entry): as the sequence (Q96SW2 whole entry) above
T4 sequence (Q16531 whole entry partner): as the sequence (Q16531 whole entry partner) above
T1 sequence (P30291 whole entry): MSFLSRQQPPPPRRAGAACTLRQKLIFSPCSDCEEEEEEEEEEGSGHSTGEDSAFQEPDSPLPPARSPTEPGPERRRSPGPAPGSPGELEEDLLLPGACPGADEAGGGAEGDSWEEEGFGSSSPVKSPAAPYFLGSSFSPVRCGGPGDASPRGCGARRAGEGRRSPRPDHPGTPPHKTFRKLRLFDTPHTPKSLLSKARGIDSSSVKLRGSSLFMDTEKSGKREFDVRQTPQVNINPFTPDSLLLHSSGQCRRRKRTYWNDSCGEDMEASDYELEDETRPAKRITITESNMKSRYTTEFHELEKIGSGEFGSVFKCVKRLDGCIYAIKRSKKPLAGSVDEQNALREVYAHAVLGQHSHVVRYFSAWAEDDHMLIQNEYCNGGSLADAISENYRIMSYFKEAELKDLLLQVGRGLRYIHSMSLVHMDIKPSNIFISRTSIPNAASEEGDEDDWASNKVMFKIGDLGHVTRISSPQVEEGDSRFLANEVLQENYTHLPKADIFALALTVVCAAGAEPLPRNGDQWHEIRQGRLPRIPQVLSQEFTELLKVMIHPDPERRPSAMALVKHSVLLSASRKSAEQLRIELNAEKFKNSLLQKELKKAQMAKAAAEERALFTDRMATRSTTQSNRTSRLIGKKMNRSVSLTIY
T1 sequence (Q96SW2 whole entry): as the sequence (Q96SW2 whole entry) above
T1 sequence (Q16531 whole entry partner): as the sequence (Q16531 whole entry partner) above
T5 sequence (P48729 whole entry): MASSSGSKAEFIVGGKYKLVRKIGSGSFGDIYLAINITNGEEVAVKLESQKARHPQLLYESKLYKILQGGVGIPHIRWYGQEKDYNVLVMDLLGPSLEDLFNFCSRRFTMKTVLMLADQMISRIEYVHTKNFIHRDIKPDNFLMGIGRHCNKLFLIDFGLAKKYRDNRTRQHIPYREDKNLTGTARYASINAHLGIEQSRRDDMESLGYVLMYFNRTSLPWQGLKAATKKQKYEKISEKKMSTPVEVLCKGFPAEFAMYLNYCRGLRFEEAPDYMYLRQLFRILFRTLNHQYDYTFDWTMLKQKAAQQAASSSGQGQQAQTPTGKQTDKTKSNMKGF
T5 sequence (Q96SW2 whole entry): as the sequence (Q96SW2 whole entry) above
T5 sequence (Q16531 whole entry partner): as the sequence (Q16531 whole entry partner) above

SMILES | Weel substrate protein remaining % [1] | IKZF 1 substrate protein remaining % [2] | IKZF2 substrate protein remaining % [3] | IKZF3 substrate protein remaining % [4] | CK1a substrate protein remaining % [5] | GSPT1 substrate protein remaining % [6]
O=C1CCC(N2C(=O)c3ccc(CNC45CC6CC(CC(C6)C4)C5)cc3C2=O)C(=O)N1 (stereo not drawn) [GT-06912, 5-((((3s,5s,7s)-adamantan-1-yl)amino)methyl)-2-(2,6-dioxopiperidin-3-yl)isoindoline-1,3-dione] | A (0% ≤ substrate protein remaining % ≤ 80%) | A (0% ≤ substrate protein remaining % ≤ 80%) | A (0% ≤ substrate protein remaining % ≤ 80%) | B (80%< substrate protein remaining %≤ 100%) | A (0% ≤ substrate protein remaining % ≤ 80%) | A (0% ≤ substrate protein remaining % ≤ 80%)
O=C1CCC(N2C(=O)c3ccc(CN4CCN(c5cc(F)ccc5F)CC4)cc3C2=O)C(=O)N1 (stereo not drawn) [GT-06362, 5-((4-(2,5-difluorophenyl)piperazin-1-yl)methyl)-2-(2,6-dioxopiperidin-3-yl)isoindoline-1,3-dione] | B (80%< substrate protein remaining %≤ 100%) | B (80%< substrate protein remaining %≤ 100%) | B (80%< substrate protein remaining %≤ 100%) | B (80%< substrate protein remaining %≤ 100%) | B (80%< substrate protein remaining %≤ 100%) | A (0% ≤ substrate protein remaining % ≤ 80%)
Cc1ccccc1N1CCN(Cc2ccc3c(c2)C(=O)N(C2CCC(=O)NC2=O)C3=O)CC1 (stereo not drawn) [GT-06296, 2-(2,6-dioxopiperidin-3-yl)-5-((4-(o-tolyl)piperazin-1-yl)methyl)isoindoline-1,3-dione] | B (80%< substrate protein remaining %≤ 100%) | B (80%< substrate protein remaining %≤ 100%) | B (80%< substrate protein remaining %≤ 100%) | B (80%< substrate protein remaining %≤ 100%) | B (80%< substrate protein remaining %≤ 100%) | A (0% ≤ substrate protein remaining % ≤ 80%)
O=C1CCC(N2C(=O)c3ccc(CN4CCC(c5cccc(Br)c5)CC4)cc3C2=O)C(=O)N1 (stereo not drawn) [GT-06369, 5-((4-(3-bromophenyl)piperidin-1-yl)methyl)-2-(2,6-dioxopiperidin-3-yl)isoindoline-1,3-dione] | A (0% ≤ substrate protein remaining % ≤ 80%) | A (0% ≤ substrate protein remaining % ≤ 80%) | A (0% ≤ substrate protein remaining % ≤ 80%) | A (0% ≤ substrate protein remaining % ≤ 80%) | A (0% ≤ substrate protein remaining % ≤ 80%) | A (0% ≤ substrate protein remaining % ≤ 80%)
Cc1csc2ncnc(C3=CCN(Cc4ccc5c(c4)C(=O)N(C4CCC(=O)NC4=O)C5=O)CC3)c12 (stereo not drawn) [GT-06654, 2-(2,6-dioxopiperidin-3-yl)-5-((4-(5-methylthieno[2,3-d]pyrimidin-4-yl)-3,6-dihydropyridin-1(2H)-yl)methyl)isoindoline-1,3-dione] | A (0% ≤ substrate protein remaining % ≤ 80%) | B (80%< substrate protein remaining %≤ 100%) | B (80%< substrate protein remaining %≤ 100%) | B (80%< substrate protein remaining %≤ 100%) | B (80%< substrate protein remaining %≤ 100%) | A (0% ≤ substrate protein remaining % ≤ 80%)
O=C1CCC(N2C(=O)c3ccc(CN4CCN(Cc5ccc(C67CC8CC(CC(C8)C6)C7)cc5)CC4)cc3C2=O)C(=O)N1 (stereo not drawn) [GT-06810, 5-((4-(4-((3r,5r,7r)-adamantan-1-yl)benzyl)piperazin-1-yl)methyl)-2-(2,6-dioxopiperidin-3-yl)isoindoline-1,3-dione] | B (80%< substrate protein remaining %≤ 100%) | A (0% ≤ substrate protein remaining % ≤ 80%) | A (0% ≤ substrate protein remaining % ≤ 80%) | A (0% ≤ substrate protein remaining % ≤ 80%) | A (0% ≤ substrate protein remaining % ≤ 80%) | A (0% ≤ substrate protein remaining % ≤ 80%)
Cc1cc(N2CCN(Cc3ccc4c(c3)C(=O)N(C3CCC(=O)NC3=O)C4=O)CC2)cs1 (stereo not drawn) [GT-06218, 2-(2,6-dioxopiperidin-3-yl)-5-((4-(5-methylthiophen-3-yl)piperazin-1-yl)methyl)isoindoline-1,3-dione] | A (0% ≤ substrate protein remaining % ≤ 80%) | B (80%< substrate protein remaining %≤ 100%) | B (80%< substrate protein remaining %≤ 100%) | A (0% ≤ substrate protein remaining % ≤ 80%) | A (0% ≤ substrate protein remaining % ≤ 80%) | A (0% ≤ substrate protein remaining % ≤ 80%)
O=C1CCC(N2C(=O)c3ccc(CN4CCN(c5ccc(F)c(F)c5)CC4)cc3C2=O)C(=O)N1 (stereo not drawn) [GT-06364, 5-((4-(3,4-difluorophenyl)piperazin-1-yl)methyl)-2-(2,6-dioxopiperidin-3-yl)isoindoline-1,3-dione] | B (80%< substrate protein remaining %≤ 100%) | B (80%< substrate protein remaining %≤ 100%) | B (80%< substrate protein remaining %≤ 100%) | B (80%< substrate protein remaining %≤ 100%) | B (80%< substrate protein remaining %≤ 100%) | A (0% ≤ substrate protein remaining % ≤ 80%)
O=C1CCC(N2C(=O)c3ccc(CN4CCN(c5cccc(F)n5)CC4)cc3C2=O)C(=O)N1 (stereo not drawn) [GT-06527, 2-(2,6-dioxopiperidin-3-yl)-5-((4-(6-fluoropyridin-2-yl)piperazin-1-yl)methyl)isoindoline-1,3-dione] | A (0% ≤ substrate protein remaining % ≤ 80%) | B (80%< substrate protein remaining %≤ 100%) | A (0% ≤ substrate protein remaining % ≤ 80%) | A (0% ≤ substrate protein remaining % ≤ 80%) | B (80%< substrate protein remaining %≤ 100%) | A (0% ≤ substrate protein remaining % ≤ 80%)
O=C1CCC(N2C(=O)c3ccc(CN4CC5CCC4CN5c4cccc(Cl)c4Cl)cc3C2=O)C(=O)N1 (stereo not drawn) [GT-06692, 5-((5-(2,3-dichlorophenyl)-2,5-diazabicyclo[2.2.2]octan-2-yl)methyl)-2-(2,6-dioxopiperidin-3-yl)isoindoline-1,3-dione] | A (0% ≤ substrate protein remaining % ≤ 80%) | B (80%< substrate protein remaining %≤ 100%) | A (0% ≤ substrate protein remaining % ≤ 80%) | B (80%< substrate protein remaining %≤ 100%) | B (80%< substrate protein remaining %≤ 100%) | A (0% ≤ substrate protein remaining % ≤ 80%)
O=C1CCC(N2C(=O)c3ccc(CN4CC(N5CCc6cc(F)ccc65)C4)cc3C2=O)C(=O)N1 (stereo not drawn) [GT-06271, 2-(2,6-dioxopiperidin-3-yl)-5-((3-(5-fluoroindolin-1-yl)azetidin-1-yl)methyl)isoindoline-1,3-dione] | A (0% ≤ substrate protein remaining % ≤ 80%) | A (0% ≤ substrate protein remaining % ≤ 80%) | A (0% ≤ substrate protein remaining % ≤ 80%) | B (80%< substrate protein remaining %≤ 100%) | B (80%< substrate protein remaining %≤ 100%) | A (0% ≤ substrate protein remaining % ≤ 80%)
O=C1CCC(N2C(=O)c3ccc(CN4CCC(c5ccc(Br)cc5)CC4)cc3C2=O)C(=O)N1 (stereo not drawn) [GT-06370, 5-((4-(4-bromophenyl)piperidin-1-yl)methyl)-2-(2,6-dioxopiperidin-3-yl)isoindoline-1,3-dione] | A (0% ≤ substrate protein remaining % ≤ 80%) | B (80%< substrate protein remaining %≤ 100%) | A (0% ≤ substrate protein remaining % ≤ 80%) | A (0% ≤ substrate protein remaining % ≤ 80%) | A (0% ≤ substrate protein remaining % ≤ 80%) | A (0% ≤ substrate protein remaining % ≤ 80%)
